Source: publication PMC10703858, “A simple and green capillary electrophoresis-mass spectrometry method for therapeutic drug monitoring of colistin in clinical plasma samples” (Heliyon, 2023)
Like-named read-outs stand apart in the source and are kept apart here. Positions of bridges follow the written chain, without caps; N, C: chain ends. Non-standard residues stand in square brackets, D forms with d. Residues, ends and D or L forms follow the SMILES beside them. *: point of attachment. Octanoyl(6-Me) = CCC(C)CCCCC(=O)*; Dab = NCC[CH](N)C(=O)O

Columns and labels:
[1] = freeze and thaw stability in plasma QC samples; settings: n = 5
Experimental: (§1) Quality control (QC) samples were prepared at three concentration levels: i.) low QC: 0.28 μg mL^−1 (CST A sulfate) and 0.47 μg mL^−1 (CST B sulfate); ii.) medium QC: 2.79 μg mL^−1 (CST A sulfate) and 4.71 μg mL^−1 (CST B sulfate); and iii.) high QC: 6.51 μg mL^−1 (CST A sulfate) and 10.99 μg mL^−1 (CST B sulfate). The calibration curve and the QC sample solutions were prepared by mixing 30 μL of the CST sulfate standard at the desired concentration level with 30 μL of demineralized water or plasma and 120 μL of the IS working solution. After being vortexed and left to rest at room temperature for 10 min, the samples were centrifuged at 30,000×g for 10 min. Following this action, supernatant was immediately injected from a CE vial. Every sample underwent three measurements.
(§2) During the validation process, two types of stability were assessed: freeze and thaw stability (three cycles of freezing and thawing at room temperature) and short-term stability (sample kept in an autosampler for 24 h at laboratory temperature). In order to compare the findings from the measurements of QC samples stored according to the guidelines with those of newly prepared QC samples, stability experiments were conducted.

[2] = tested on: plasma proteins (especially acidic alpha glycoprotein); settings: cited from earlier work
[3] = short-term (autosampler) stability in plasma QC samples; settings: n = 5
Experimental: as §1, §2

[4] = plasma CST concentration in critically ill patient (CE-MS/MS, TDM); format: in vivo, human; settings: CST A + CST B = 100 %, reference standard was 37.2/62.8 %
Experimental: Clinical plasma samples from two critically ill patients were obtained from the Clinic of Hematology and Transfusiology of St Cyril and Methodius Hospital in Bratislava. After collection, the samples were stored at −80 °C. Before the analysis, the samples were thawed at laboratory temperature, vortexed, and then, 30 μL of the plasma sample was mixed with 30 μL of demineralized water and 120 μL of the IS working solution. […] Following this action, the supernatant was injected directly into the CE system from a CE vial.
The application potential of the validated CE-MS method was tested on the plasma samples obtained from the Clinic of Hematology and Transfusiology of St Cyril and Methodius Hospital in Bratislava. Samples were collected from two critically ill patients treated with multiple intravenous antibiotics and antifungals. The samples were collected before and 30 min after the intravenous (i.v.) administration of the drugs. Patient 1 was treated with meropenem, trimethoprim/sulphamethoxazol, and CST. […] The measured plasma CST concentration of patient 1 before drug administration was 0.82 ± 0.02 μg mL^−1 ([…], n = 3). […]
As previously stated, CST is a heterogeneous substance and, as such, differs not only between producers but also across batches produced by the same manufacturer. […] In clinical plasma samples, a reverse percentage representation of the CST forms was detected. […]

[5] = pediatric patients; sum of CST A and CST B; cited from earlier work
[6] = parameters: method as in PMID 30500757; settings: used topically and orally; cited from earlier work

CCC(C)CCCCC(=O)NC(CCN)C(=O)NC(C(=O)NC(CCN)C(=O)NC1CCNC(=O)C(C(C)O)NC(=O)C(CCN)NC(=O)C(CCN)NC(=O)C(CC(C)C)NC(=O)C(CC(C)C)NC(=O)C(CCN)NC1=O)C(C)O (stereo not drawn) [CST A, colistin A] ({Octanoyl(6-Me)}-[Dab]T[Dab][Dab][Dab]LL[Dab][Dab]T; lactam 4-C; configuration not given here)
Freeze-to-thaw stability, Found, QC high ([1]; plasma QC high, nominal 6.51 (CST A) / 10.99 (CST B) μg.mL^−1, three freeze-thaw cycles, CE-MS/MS): 6.54 µg/mL | Freeze-to-thaw stability, Found, QC low ([1]; plasma QC low, nominal 0.28 (CST A) / 0.47 (CST B) μg.mL^−1, three cycles of freezing and thawing at room temperature, CE-MS/MS): 0.29 µg/mL | Freeze-to-thaw stability, Found, QC medium ([1]; plasma QC medium, nominal 2.79 (CST A) / 4.71 (CST B) μg.mL^−1, three freeze-thaw cycles, CE-MS/MS): 2.81 µg/mL | Freeze-to-thaw stability, RE, QC low ([1]; relative error in comparison to fresh sample, plasma QC low, three freeze-thaw cycles): 2.7% | Freeze-to-thaw stability, RE, QC medium ([1]; relative error in comparison to fresh sample, plasma QC medium, three freeze-thaw cycles): 1.7% | binding to plasma proteins ([2]; especially to acidic alpha glycoprotein): 56.6% | Autosampler stability, Found, QC high ([3]; plasma QC high, nominal 6.51 (CST A) / 10.99 (CST B) μg.mL^−1, autosampler 24 h at laboratory temperature, CE-MS/MS): 6.76 µg/mL | Autosampler stability, Found, QC low ([3]; plasma QC low, nominal 0.28 (CST A) / 0.47 (CST B) μg.mL^−1, kept in autosampler 24 h at laboratory temperature, pooled human plasma, CE-MS/MS): 0.29 µg/mL | Autosampler stability, Found, QC medium ([3]; plasma QC medium, nominal 2.79 (CST A) / 4.71 (CST B) μg.mL^−1, autosampler 24 h at laboratory temperature, CE-MS/MS): 2.94 µg/mL | Autosampler stability, RE, QC high ([3]; relative error in comparison to fresh sample, plasma QC high, autosampler 24 h at laboratory temperature): 2.3% | Autosampler stability, RE, QC medium ([3]; relative error in comparison to fresh sample, plasma QC medium, autosampler 24 h at laboratory temperature): 3.3% | percentage representation of the CST forms in clinical plasma samples [4]: 76.4%

CC(C)CCCCC(=O)N[C@@H](CCN)C(=O)N[C@H](C(=O)N[C@@H](CCN)C(=O)N[C@H]1CCNC(=O)[C@H]([C@@H](C)O)NC(=O)[C@H](CCN)NC(=O)[C@H](CCN)NC(=O)[C@H](CC(C)C)NC(=O)[C@@H](CC(C)C)NC(=O)[C@H](CCN)NC1=O)[C@@H](C)O [CST B, colistin B] (HELM PEPTIDE1{[CC(C)CCCCC(=O)[*:2]].[Dab].T.[Dab].[Dab].[Dab].[dL].L.[Dab].[Dab].T}$PEPTIDE1,PEPTIDE1,5:R3-11:R2$$$V2.0)
binding to plasma proteins [2]: 41.7%

Colistin [CST]
mean steady-state concentration of CST in plasma, median [5]: 2.92 µg/mL

colistin sulfate
absorption from the gastrointestinal tract [6]: minimal
